Results: ChEMBL document CHEMBL1134903, “Synthesis and SAR of azalide 3,6-ketal aromatic derivatives as potent Gram-positive and Gram-negative antibacterial agents” (Bioorg Med Chem Lett, 2002)
Converted amounts (≈) assume the structure as drawn.

Experiments:
Type in all cases: functional
[1] = test system: Staphylococcus aureus; experiment: Minimum inhibitory concentration against Staphylococcus aureus
[2] = test system: Escherichia coli; experiment: Minimum inhibitory concentration against Escherichia coli
[3] = test system: Staphylococcus aureus; experiment: Colony forming units of Staphylococcus aureus intramammary infection (IMI) model was determined at a dose of 15 mg/kg
[4] = test system: Staphylococcus aureus; experiment: Effective dose required to inhibit Staphylococcus aureus intraperitoneal (IP) infection model
[5] = test system: Pasteurella multocida; experiment: Minimum inhibitory concentration against Pasteurella multocida

Row | SMILES | MIC [1] | MIC [2] | Log CFU [3] | ED50 [4] | MIC [5]
1 | CC[C@H]1OC(=O)[C@H](C)[C@H]2OC3(CCN(Cc4ccccn4)CC3)O[C@](C)(C[C@@H](C)CN[C@H](C)[C@@H](O)[C@]1(C)O)[C@H](O[C@@H]1O[C@H](C)C[C@H](N(C)C)[C@H]1O)[C@H]2C | 0.6 mg/L (≈ 0.801 µM) | 0.2 mg/L (≈ 0.267 µM) | 1.1 | < 5 mg/kg | 0.03 mg/L (≈ 0.0401 µM)
2 | CC[C@H]1OC(=O)[C@H](C)[C@H]2OC3(CCN(C(=O)c4cccc(OC)c4)CC3)O[C@](C)(C[C@@H](C)CN[C@H](C)[C@@H](O)[C@]1(C)O)[C@H](O[C@@H]1O[C@H](C)C[C@H](N(C)C)[C@H]1O)[C@H]2C | 0.78 mg/L (≈ 0.985 µM) | 3.13 mg/L (≈ 3.95 µM) | 5.6 | 20 mg/kg | 0.1 mg/L (≈ 0.126 µM)
3 | CC[C@H]1OC(=O)[C@H](C)[C@@H](O[C@H]2C[C@@](C)(OC)[C@@H](O)[C@H](C)O2)[C@H](C)[C@@H](O[C@@H]2O[C@H](C)C[C@H](N(C)C)[C@H]2O)[C@](C)(O)C[C@@H](C)CN(C)[C@H](C)[C@@H](O)[C@]1(C)O [AZITHROMYCIN] | 0.2 mg/L (≈ 0.267 µM) | 1.56 mg/L (≈ 2.08 µM) | 2.8 | 4.1 mg/kg | 0.1 mg/L (≈ 0.134 µM)
4 | CC[C@H]1OC(=O)[C@H](C)[C@H]2OC3(CCN(C(=O)c4ccccn4)CC3)O[C@](C)(C[C@@H](C)CN[C@H](C)[C@@H](O)[C@]1(C)O)[C@H](O[C@@H]1O[C@H](C)C[C@H](N(C)C)[C@H]1O)[C@H]2C | 0.78 mg/L (≈ 1.02 µM) | 1.56 mg/L (≈ 2.04 µM) | 3.5 | 7.6 mg/kg | 0.1 mg/L (≈ 0.131 µM)
5 | CC[C@H]1OC(=O)[C@H](C)[C@H]2OC3(CCN(C(=O)c4cccc(O)n4)CC3)O[C@](C)(C[C@@H](C)CN[C@H](C)[C@@H](O)[C@]1(C)O)[C@H](O[C@@H]1O[C@H](C)C[C@H](N(C)C)[C@H]1O)[C@H]2C | 3.13 mg/L (≈ 4.02 µM) | 6.25 mg/L (≈ 8.02 µM) | 9.7 | 19 mg/kg | 0.3 mg/L (≈ 0.385 µM)
6 | CC[C@H]1OC(=O)[C@H](C)[C@H]2OC3(CCN(Cc4cccnc4)CC3)O[C@](C)(C[C@@H](C)CN[C@H](C)[C@@H](O)[C@]1(C)O)[C@H](O[C@@H]1O[C@H](C)C[C@H](N(C)C)[C@H]1O)[C@H]2C | 0.39 mg/L (≈ 0.521 µM) | 0.78 mg/L (≈ 1.04 µM) | 1.3 | < 5 mg/kg | 0.03 mg/L (≈ 0.0401 µM)
7 | CC[C@H]1OC(=O)[C@H](C)[C@H]2OC3(CCN(CCc4ccc(OC)cc4)CC3)O[C@](C)(C[C@@H](C)CN(C)[C@H](C)[C@@H](O)[C@]1(C)O)[C@H](O[C@@H]1O[C@H](C)C[C@H](N(C)C)[C@H]1O)[C@H]2C | 0.39 mg/L (≈ 0.484 µM) | 0.39 mg/L (≈ 0.484 µM) | 9.7 | > 20 mg/kg | 0.03 mg/L (≈ 0.0372 µM)
8 | CC[C@H]1OC(=O)[C@H](C)[C@H]2OC3(CCN(Cc4ccccn4)CC3)O[C@](C)(C[C@@H](C)CN(C)[C@H](C)[C@@H](O)[C@]1(C)O)[C@H](O[C@@H]1O[C@H](C)C[C@H](N(C)C)[C@H]1O)[C@H]2C | 0.78 mg/L (≈ 1.02 µM) | 0.2 mg/L (≈ 0.262 µM) | 1.9 | 17 mg/kg | 0.03 mg/L (≈ 0.0393 µM)
9 | CC[C@H]1OC(=O)[C@H](C)[C@H]2OC3(CCN(C(=O)c4cnccn4)CC3)O[C@](C)(C[C@@H](C)CN[C@H](C)[C@@H](O)[C@]1(C)O)[C@H](O[C@@H]1O[C@H](C)C[C@H](N(C)C)[C@H]1O)[C@H]2C | 1.56 mg/L (≈ 2.04 µM) | 1.56 mg/L (≈ 2.04 µM) | 1.3 | 6.1 mg/kg | 0.1 mg/L (≈ 0.131 µM)
10 | CC[C@H]1OC(=O)[C@H](C)[C@H]2OC3(CCN(C(=O)c4cccn4C)CC3)O[C@](C)(C[C@@H](C)CN[C@H](C)[C@@H](O)[C@]1(C)O)[C@H](O[C@@H]1O[C@H](C)C[C@H](N(C)C)[C@H]1O)[C@H]2C | 0.78 mg/L (≈ 1.02 µM) | 1.56 mg/L (≈ 2.04 µM) | 2.4 | 19 mg/kg | 0.1 mg/L (≈ 0.131 µM)
11 | CC[C@H]1OC(=O)[C@H](C)[C@H]2OC3(CCN(C(=O)c4ccnc5ccccc45)CC3)O[C@](C)(C[C@@H](C)CN[C@H](C)[C@@H](O)[C@]1(C)O)[C@H](O[C@@H]1O[C@H](C)C[C@H](N(C)C)[C@H]1O)[C@H]2C | 0.39 mg/L (≈ 0.48 µM) | 6.25 mg/L (≈ 7.69 µM) | 1.9 | 7.6 mg/kg | 0.1 mg/L (≈ 0.123 µM)
12 | CC[C@H]1OC(=O)[C@H](C)[C@H]2OC3(CCN(C(=O)c4cccnc4Cl)CC3)O[C@](C)(C[C@@H](C)CN[C@H](C)[C@@H](O)[C@]1(C)O)[C@H](O[C@@H]1O[C@H](C)C[C@H](N(C)C)[C@H]1O)[C@H]2C | 1.56 mg/L (≈ 1.96 µM) | 3.13 mg/L (≈ 3.93 µM) | 4.4 | 9.4 mg/kg | 0.1 mg/L (≈ 0.125 µM)
13 | CC[C@H]1OC(=O)[C@H](C)[C@H]2OC3(CCN(C(=O)c4ccc5ccccc5n4)CC3)O[C@](C)(C[C@@H](C)CN[C@H](C)[C@@H](O)[C@]1(C)O)[C@H](O[C@@H]1O[C@H](C)C[C@H](N(C)C)[C@H]1O)[C@H]2C | 0.2 mg/L (≈ 0.246 µM) | 1.56 mg/L (≈ 1.92 µM) | 1.9 | 14 mg/kg | 0.05 mg/L (≈ 0.0615 µM)
14 | CC[C@H]1OC(=O)[C@H](C)[C@H]2OC3(CCN(C(=O)c4ccccn4)CC3)O[C@](C)(C[C@@H](C)CN(C)[C@H](C)[C@@H](O)[C@]1(C)O)[C@H](O[C@@H]1O[C@H](C)C[C@H](N(C)C)[C@H]1O)[C@H]2C | 1.56 mg/L (≈ 2.01 µM) | 1.56 mg/L (≈ 2.01 µM) | 2.9 | 12 mg/kg | 0.1 mg/L (≈ 0.129 µM)
15 | CC[C@H]1OC(=O)[C@H](C)[C@H]2OC3(CCN(C(=O)c4ccccc4)CC3)O[C@](C)(C[C@@H](C)CN[C@H](C)[C@@H](O)[C@]1(C)O)[C@H](O[C@@H]1O[C@H](C)C[C@H](N(C)C)[C@H]1O)[C@H]2C | 0.78 mg/L (≈ 1.02 µM) | 1.56 mg/L (≈ 2.05 µM) | 2.9 | 20 mg/kg | 0.1 mg/L (≈ 0.131 µM)
16 | CC[C@H]1OC(=O)[C@H](C)[C@H]2OC3(CCN(C(=O)c4ccnc5ccccc45)CC3)O[C@](C)(C[C@@H](C)CN(C)[C@H](C)[C@@H](O)[C@]1(C)O)[C@H](O[C@@H]1O[C@H](C)C[C@H](N(C)C)[C@H]1O)[C@H]2C | 0.39 mg/L (≈ 0.472 µM) | 6.25 mg/L (≈ 7.56 µM) | 2.5 | 20 mg/kg | 0.1 mg/L (≈ 0.121 µM)
17 | CC[C@H]1OC(=O)[C@H](C)[C@H]2OC3(CCN(C(=O)c4cnc5ccccc5c4)CC3)O[C@](C)(C[C@@H](C)CN[C@H](C)[C@@H](O)[C@]1(C)O)[C@H](O[C@@H]1O[C@H](C)C[C@H](N(C)C)[C@H]1O)[C@H]2C | 0.39 mg/L (≈ 0.48 µM) | 3.13 mg/L (≈ 3.85 µM) | 3.3 | 13 mg/kg | 0.1 mg/L (≈ 0.123 µM)
18 | CC[C@H]1OC(=O)[C@H](C)[C@H]2OC3(CCN(C(=O)c4cccnc4)CC3)O[C@](C)(C[C@@H](C)CN(C)[C@H](C)[C@@H](O)[C@]1(C)O)[C@H](O[C@@H]1O[C@H](C)C[C@H](N(C)C)[C@H]1O)[C@H]2C | 1.56 mg/L (≈ 2.01 µM) | 3.13 mg/L (≈ 4.03 µM) | 2.6 | 10 mg/kg | 0.1 mg/L (≈ 0.129 µM)
19 | CC[C@H]1OC(=O)[C@H](C)[C@H]2OC3(CCN(CCc4ccc(Cl)cc4)CC3)O[C@](C)(C[C@@H](C)CN(C)[C@H](C)[C@@H](O)[C@]1(C)O)[C@H](O[C@@H]1O[C@H](C)C[C@H](N(C)C)[C@H]1O)[C@H]2C | 0.39 mg/L (≈ 0.481 µM) | 0.2 mg/L (≈ 0.247 µM) | 9.7 | > 20 mg/kg | 0.03 mg/L (≈ 0.037 µM)
20 | CC[C@H]1OC(=O)[C@H](C)[C@H]2OC3(CCN(C(=O)c4ccc[nH]4)CC3)O[C@](C)(C[C@@H](C)CN[C@H](C)[C@@H](O)[C@]1(C)O)[C@H](O[C@@H]1O[C@H](C)C[C@H](N(C)C)[C@H]1O)[C@H]2C | 0.78 mg/L (≈ 1.04 µM) | 0.78 mg/L (≈ 1.04 µM) | 4.7 | 19 mg/kg | 0.05 mg/L (≈ 0.0666 µM)
21 | CC[C@H]1OC(=O)[C@H](C)[C@H]2OC3(CCN(C(=O)c4cccnc4)CC3)O[C@](C)(C[C@@H](C)CN[C@H](C)[C@@H](O)[C@]1(C)O)[C@H](O[C@@H]1O[C@H](C)C[C@H](N(C)C)[C@H]1O)[C@H]2C | 1.56 mg/L (≈ 2.04 µM) | 3.13 mg/L (≈ 4.1 µM) | 3.2 | 6.4 mg/kg | 0.1 mg/L (≈ 0.131 µM)
22 | CC[C@H]1OC(=O)[C@H](C)[C@H]2OC3(CCN(C(=O)c4ccoc4)CC3)O[C@](C)(C[C@@H](C)CN[C@H](C)[C@@H](O)[C@]1(C)O)[C@H](O[C@@H]1O[C@H](C)C[C@H](N(C)C)[C@H]1O)[C@H]2C | 0.78 mg/L (≈ 1.04 µM) | 0.78 mg/L (≈ 1.04 µM) | 2.6 | 11 mg/kg | 0.05 mg/L (≈ 0.0665 µM)
23 | CC[C@H]1OC(=O)[C@H](C)[C@H]2OC3(CCN(C(=O)c4ccco4)CC3)O[C@](C)(C[C@@H](C)CN[C@H](C)[C@@H](O)[C@]1(C)O)[C@H](O[C@@H]1O[C@H](C)C[C@H](N(C)C)[C@H]1O)[C@H]2C | 0.78 mg/L (≈ 1.04 µM) | 1.56 mg/L (≈ 2.07 µM) | 0.4 | 12 mg/kg | 0.05 mg/L (≈ 0.0665 µM)
24 | CC[C@H]1OC(=O)[C@H](C)[C@H]2OC3(CCN(C(=O)c4ccc5ccccc5n4)CC3)O[C@](C)(C[C@@H](C)CN(C)[C@H](C)[C@@H](O)[C@]1(C)O)[C@H](O[C@@H]1O[C@H](C)C[C@H](N(C)C)[C@H]1O)[C@H]2C | 0.39 mg/L (≈ 0.472 µM) | 6.25 mg/L (≈ 7.56 µM) | 9.7 | > 20 mg/kg | 0.1 mg/L (≈ 0.121 µM)
